The record followed here is US8916593B2, “Alkoxy-substituted 2-aminopyridines as ALK inhibitors” (Pfizer Inc., priority 2010, dated 2014).

The structures appear in SMILES notation. Structures can show the parent of a compound that is named as a salt. Where two headings read alike, the source gives them in different places.

The target of one test is T1, ALK enzyme (Homo sapiens, UniProt Q9UM73).
T1 construct: purchased Invitrogen PV4185
As to the kind of experiment: ALK enzymatic activity assay 1. It is filed as biochemical. As for the experimental part: ALK Enzymatic Activity Assay 1
Compounds were added at a final concentration of 1% DMSO in half-log dilutions, starting at 20 μM final concentration. The reactions were initiated by the addition of 10 μL of peptide/ATP mix to 10 μL enzyme and 2 μL of compound in 384-well plate. […] On the 12-sipper chip, substrate and phosphorylated product were separated with an upstream voltage of −2650 V, a downstream voltage of −500 V, and a screen pressure of −1.5 psi. The relative peak heights of substrate and product were measured and ratios were calculated using HTS Well Analyzer Software version 5.2.43 from the manufacturer.

The next test addresses T2, cMet enzyme (Homo sapiens, UniProt P08581).
T2 construct: RTC Lot#032006
As to the kind of experiment: cMet enzymatic activity assay. The format is biochemical. The settings on record: purified cMet enzyme 7.5 nM, ATP 17 μM (Km). Here is the method:
cMet Enzymatic Activity Assay
Compounds were added at a final concentration of 2% DMSO in half-log dilutions, starting at 20 μM final concentration. The reactions were initiated by addition of 10 μL of peptide/ATP mix to 10 μL enzyme and 5 μL of compound in 384-well plate. […] Substrate and phosphorylated product were separated with an upstream voltage of −2650 V, a downstream voltage of −500V, and a screen pressure of −1.5 psi. The relative peak heights of substrate and product were measured and ratios were calculated using HTS Well Analyzer Software version 5.2.43 from the manufacturer.

The target of test [1] is T3, human recombinant wild-type ALK kinase domain (amino acids 1093-1411) (Homo sapiens, UniProt Q9UM73).
T3 construct: ALK kinase domain (amino acids 1093-1411); made in house
T3 sequence (Q9UM73 1093-1411): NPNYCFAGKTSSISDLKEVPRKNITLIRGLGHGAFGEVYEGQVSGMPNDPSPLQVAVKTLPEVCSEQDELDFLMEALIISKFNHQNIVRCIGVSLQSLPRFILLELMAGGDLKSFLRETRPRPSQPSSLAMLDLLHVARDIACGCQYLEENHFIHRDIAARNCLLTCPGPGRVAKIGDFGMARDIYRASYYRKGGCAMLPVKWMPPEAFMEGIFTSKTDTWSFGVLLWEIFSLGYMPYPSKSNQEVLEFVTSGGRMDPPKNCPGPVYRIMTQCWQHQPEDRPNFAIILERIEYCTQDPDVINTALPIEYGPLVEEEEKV
As to the kind of experiment: ALK enzyme assay 2 (microfluidic mobility shift assay).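 Also: kinase reaction run 1 h at room temperature, conversion quantified by electrophoretic separation of fluorescent peptide substrate from phosphorylated product, about 15-20% turnover without inhibitor.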 It is filed as biochemical.
Method: The reactions were incubated for 1 h at room temperature, stopped by the addition of 0.1 M EDTA, pH 8, and the extent of reactions (˜15-20% conversion with no inhibitor) was determined after electrophoretic separation of the fluorescently labeled peptide substrate and phosphorylated product on an LabChip EZ Reader II (Caliper Life Sciences, Hopkinton, Mass.).

The target of test [2] is EML4-ALK wt v1 in NIH-3T3 cells (Homo sapiens, UniProt Q9UM73).
Chain of EML4-ALK wt v1 in NIH-3T3 cells (Q9UM73 with tags, fused parts or gaps): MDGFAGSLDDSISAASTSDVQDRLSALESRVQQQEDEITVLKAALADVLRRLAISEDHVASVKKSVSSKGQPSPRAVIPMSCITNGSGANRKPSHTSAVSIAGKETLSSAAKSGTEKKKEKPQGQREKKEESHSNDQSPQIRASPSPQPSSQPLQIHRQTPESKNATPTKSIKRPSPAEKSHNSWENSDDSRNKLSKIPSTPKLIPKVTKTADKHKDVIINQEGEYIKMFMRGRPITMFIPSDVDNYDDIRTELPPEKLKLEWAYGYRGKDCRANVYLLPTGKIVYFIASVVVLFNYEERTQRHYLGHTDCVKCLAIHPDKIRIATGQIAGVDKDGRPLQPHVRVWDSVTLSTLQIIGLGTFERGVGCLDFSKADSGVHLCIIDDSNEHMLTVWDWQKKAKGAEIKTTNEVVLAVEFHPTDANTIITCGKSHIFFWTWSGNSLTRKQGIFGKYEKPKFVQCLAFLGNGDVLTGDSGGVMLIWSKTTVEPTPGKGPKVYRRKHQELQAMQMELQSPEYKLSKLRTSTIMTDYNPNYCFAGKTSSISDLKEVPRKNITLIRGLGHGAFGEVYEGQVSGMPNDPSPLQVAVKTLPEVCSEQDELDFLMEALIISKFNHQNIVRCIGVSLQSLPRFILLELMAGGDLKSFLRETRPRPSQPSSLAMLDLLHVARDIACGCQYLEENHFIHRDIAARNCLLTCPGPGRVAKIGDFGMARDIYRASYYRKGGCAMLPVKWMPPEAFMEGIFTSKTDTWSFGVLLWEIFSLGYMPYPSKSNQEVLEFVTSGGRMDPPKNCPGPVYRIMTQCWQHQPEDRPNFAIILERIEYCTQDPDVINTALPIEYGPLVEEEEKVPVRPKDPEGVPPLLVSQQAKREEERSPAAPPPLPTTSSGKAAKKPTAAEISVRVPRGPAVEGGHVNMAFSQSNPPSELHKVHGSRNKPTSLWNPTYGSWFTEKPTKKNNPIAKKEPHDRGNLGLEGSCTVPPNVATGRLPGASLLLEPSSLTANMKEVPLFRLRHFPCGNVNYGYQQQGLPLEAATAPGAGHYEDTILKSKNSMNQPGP

T1 sequence (Q9UM73 19-1620): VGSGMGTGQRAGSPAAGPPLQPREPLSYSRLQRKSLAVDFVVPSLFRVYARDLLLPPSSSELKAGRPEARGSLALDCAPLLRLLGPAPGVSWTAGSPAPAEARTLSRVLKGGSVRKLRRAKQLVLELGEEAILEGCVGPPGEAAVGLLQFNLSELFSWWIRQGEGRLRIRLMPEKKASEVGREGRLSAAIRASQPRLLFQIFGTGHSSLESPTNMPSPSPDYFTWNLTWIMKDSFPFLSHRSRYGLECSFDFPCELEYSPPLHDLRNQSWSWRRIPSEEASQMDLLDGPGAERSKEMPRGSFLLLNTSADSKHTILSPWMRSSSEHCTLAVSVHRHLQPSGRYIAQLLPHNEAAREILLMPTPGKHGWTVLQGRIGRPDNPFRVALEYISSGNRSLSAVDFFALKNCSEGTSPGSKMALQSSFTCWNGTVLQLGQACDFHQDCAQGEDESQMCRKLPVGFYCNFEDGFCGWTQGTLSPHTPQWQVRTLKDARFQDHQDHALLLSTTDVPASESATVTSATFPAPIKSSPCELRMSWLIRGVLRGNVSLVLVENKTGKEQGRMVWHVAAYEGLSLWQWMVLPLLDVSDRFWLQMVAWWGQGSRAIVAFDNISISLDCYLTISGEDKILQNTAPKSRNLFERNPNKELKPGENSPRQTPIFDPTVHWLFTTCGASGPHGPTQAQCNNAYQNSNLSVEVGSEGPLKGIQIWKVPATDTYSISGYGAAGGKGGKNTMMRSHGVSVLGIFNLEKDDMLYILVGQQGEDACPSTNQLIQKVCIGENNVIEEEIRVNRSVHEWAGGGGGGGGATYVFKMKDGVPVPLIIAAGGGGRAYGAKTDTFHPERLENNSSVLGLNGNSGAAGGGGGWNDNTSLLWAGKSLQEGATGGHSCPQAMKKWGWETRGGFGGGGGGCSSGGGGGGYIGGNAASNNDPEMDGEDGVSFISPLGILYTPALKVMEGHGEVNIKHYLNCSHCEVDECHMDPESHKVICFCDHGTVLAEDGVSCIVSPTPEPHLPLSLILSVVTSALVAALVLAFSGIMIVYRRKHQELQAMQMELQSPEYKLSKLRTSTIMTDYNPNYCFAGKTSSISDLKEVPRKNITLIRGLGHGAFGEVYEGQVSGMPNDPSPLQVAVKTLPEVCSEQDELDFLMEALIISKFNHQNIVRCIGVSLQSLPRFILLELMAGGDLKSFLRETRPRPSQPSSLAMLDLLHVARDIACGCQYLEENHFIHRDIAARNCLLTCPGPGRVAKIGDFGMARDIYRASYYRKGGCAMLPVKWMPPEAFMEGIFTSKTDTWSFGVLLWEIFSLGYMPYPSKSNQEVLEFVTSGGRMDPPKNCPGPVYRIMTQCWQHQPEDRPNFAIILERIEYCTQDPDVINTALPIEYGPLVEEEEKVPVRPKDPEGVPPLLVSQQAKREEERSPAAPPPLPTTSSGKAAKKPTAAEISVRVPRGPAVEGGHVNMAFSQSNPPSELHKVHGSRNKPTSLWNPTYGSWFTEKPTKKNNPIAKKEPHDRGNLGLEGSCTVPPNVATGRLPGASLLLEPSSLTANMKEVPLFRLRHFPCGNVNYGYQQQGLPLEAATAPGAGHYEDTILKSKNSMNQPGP
T2 sequence (P08581 25-1390): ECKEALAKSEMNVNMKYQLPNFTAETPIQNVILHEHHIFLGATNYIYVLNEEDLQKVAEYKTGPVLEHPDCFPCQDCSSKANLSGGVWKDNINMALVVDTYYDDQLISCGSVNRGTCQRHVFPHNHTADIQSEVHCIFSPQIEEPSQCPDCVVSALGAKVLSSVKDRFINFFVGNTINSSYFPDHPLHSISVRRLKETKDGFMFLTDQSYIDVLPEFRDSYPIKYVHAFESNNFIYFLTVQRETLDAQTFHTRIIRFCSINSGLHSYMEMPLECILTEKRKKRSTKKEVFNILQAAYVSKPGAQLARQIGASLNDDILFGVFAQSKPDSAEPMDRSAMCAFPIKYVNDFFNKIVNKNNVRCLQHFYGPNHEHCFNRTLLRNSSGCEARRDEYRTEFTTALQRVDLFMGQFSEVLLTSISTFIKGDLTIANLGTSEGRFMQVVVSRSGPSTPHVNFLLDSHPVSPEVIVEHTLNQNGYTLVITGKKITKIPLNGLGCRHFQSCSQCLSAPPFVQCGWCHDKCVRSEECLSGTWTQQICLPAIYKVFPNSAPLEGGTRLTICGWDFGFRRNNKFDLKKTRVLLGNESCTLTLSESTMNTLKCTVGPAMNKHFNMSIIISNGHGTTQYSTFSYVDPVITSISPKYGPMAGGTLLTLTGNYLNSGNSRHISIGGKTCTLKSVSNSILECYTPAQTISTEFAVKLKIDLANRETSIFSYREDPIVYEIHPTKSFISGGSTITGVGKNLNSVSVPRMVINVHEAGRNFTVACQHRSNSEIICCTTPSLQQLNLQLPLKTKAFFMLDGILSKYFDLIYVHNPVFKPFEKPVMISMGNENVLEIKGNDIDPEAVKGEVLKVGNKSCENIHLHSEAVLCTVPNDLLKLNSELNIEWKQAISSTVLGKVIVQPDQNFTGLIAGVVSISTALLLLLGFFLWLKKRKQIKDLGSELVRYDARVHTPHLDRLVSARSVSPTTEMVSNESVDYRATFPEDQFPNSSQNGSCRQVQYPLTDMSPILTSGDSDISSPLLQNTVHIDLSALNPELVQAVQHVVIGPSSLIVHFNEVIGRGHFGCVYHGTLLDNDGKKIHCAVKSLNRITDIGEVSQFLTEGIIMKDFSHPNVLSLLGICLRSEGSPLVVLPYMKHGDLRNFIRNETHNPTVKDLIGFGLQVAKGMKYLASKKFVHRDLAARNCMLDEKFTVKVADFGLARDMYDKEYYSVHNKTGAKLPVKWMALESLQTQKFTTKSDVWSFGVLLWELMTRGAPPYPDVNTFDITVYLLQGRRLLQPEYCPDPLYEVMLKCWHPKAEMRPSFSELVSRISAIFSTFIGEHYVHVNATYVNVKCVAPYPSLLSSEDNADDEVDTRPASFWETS

Regarding `COc1ccc(F)cc1C(C)Oc1cc(-c2c(OC)cnn2C)cnc1N` (stereo not shown) [Example 16, 3-[1-(5-fluoro-2-methoxyphenyl)ethoxy]-5-(4-methoxy-1-methyl-1H-pyrazol-5-yl)pyridin-2-amine], the IC50 against ALK enzyme came out at 38.1 nM; at cMet enzyme, 11200 nM; in test [2], 123 nM. For the same molecule, the inhibition constant Ki in test [1] was 1.3 nM.
Turning to `COc1ccc(F)cc1C(C)Oc1cc(-c2cc(Cl)nnc2N)cnc1N` (stereo not shown) [Example 17, 4-{6-amino-5-[1-(5-fluoro-2-methoxyphenyl)ethoxy]-pyridin-3-yl}-6-chloropyridazin-3-amine], the IC50 against ALK enzyme turned out to be 133 nM; against cMet enzyme it was 13200 nM; in test [2], 672 nM. Further, the Ki in test [1] stood at 11 nM.
As to `COc1ccc(F)cc1C(C)Oc1cc(-c2c(CO)cnn2C)cnc1N` (stereo not shown) [Example 18, (5-{6-amino-5-[1-(5-fluoro-2-methoxyphenyl)ethoxy]pyridin-3-yl}-1-methyl-1H-pyrazol-4-yl)methanol], the IC50 against ALK enzyme is 92.6 nM; at cMet enzyme it was over 20000 nM; in test [2] it was 421 nM. For the same molecule, the Ki in test [1] amounted to 8.1 nM.
The like results for `COc1ccc(F)cc1C(C)Oc1cc(-c2cccnc2OCCO)cnc1N` (stereo not shown) [Example 19, 2-{6′-Amino-5′-[1-(5-fluoro-2-methoxy-phenyl)-ethoxy]-[3,3]bipyridinyl-2-yloxy}-ethanol] were, in that order, 78.7 nM, over 19700 nM, 53.5 nM and 1.05 nM.
For the molecule `CC(Oc1cc(-c2cn(C)cn2)cnc1N)c1cc(F)ccc1Cl` (stereo not shown) [Example 23, 3-[1-(2-chloro-5-fluorophenyl)-ethoxy]-5-(1-methyMH-imidazol-4-yl)pyridin-2-amine], the IC50 on ALK enzyme (purified ALK enzyme 10 nM, ATP 25 μM (Km)) was 271 nM; on cMet enzyme, over 19100 nM; in test [2] (read-out: ELISA assay for WT EML4-ALK (IC50), cellular phospho-ALK (Tyr1604), NIH-3T3 EML4-ALK wt v1 cells, 1 hour), 1080 nM. The Ki in test [1] is 45 nM.
On to `COc1ccc(F)cc1[C@@H](C)Oc1cc(-c2c(C)nn(CC(O)CO)c2C)cnc1N` (stereo partly drawn) [Example 26, 3-(4-{6-amino-5-[(1R)-1-(5-fluoro-2-methoxyphenyl)-ethoxy]pyridin-3-yl}-3,5-dimethyl-1H-pyrazol-1-yl)propane-1,2-diol], for which the IC50 came to 24.1 nM at ALK enzyme, 4300 nM against cMet enzyme and 4.54 nM in test [2]. The Ki in test [1] was under 0.313 nM.
The like results for `COc1ccc(F)cc1[C@@H](C)Oc1cc(-c2cccnc2CO)cnc1N` [Example 27, {6′-amino-5′-[(1R)-1-(5-fluoro-2-methoxyphenyl)-ethoxy]-3,3′-bipyridin-2-yl}methanol] were, in that order, 47.3 nM, over 15400 nM, 138 nM and 3.1 nM.
The corresponding values for `CC(Oc1cc(-c2ccnn2C)cnc1N)c1cc(F)ccc1-n1ccnn1` (stereo not shown) [Example 32, 3-{1-[5-fluoro-2-(1H-1,2,3-triazol-1-yl)phenyl]-ethoxy}-5-(1-methyl-1H-pyrazol-5-yl)pyridin-2-amine] are 105 nM, over 20000 nM, 883 nM and 36 nM.
The like results for `COc1ncc(F)cc1C(C)Oc1cc(-c2ccnn2C)cnc1N` (stereo not shown) [Example 33, 3-[1-(5-fluoro-2-methoxypyridin-3-yl)ethoxy]-5-(1-methyl-1H-pyrazol-5-yl)pyridin-2-amine monohydrochloride] were, in that order, 89.2 nM, over 20000 nM, 380 nM and 4.8 nM.
Take `COc1ncc(F)cc1[C@@H](C)Oc1cc(-c2ccnn2C)cnc1N` [Example 34, 3-[(1R)-1-(5-fluoro-2-methoxypyridin-3-yl)ethoxy]-5-(1-methyl-1H-pyrazol-5-yl)pyridin-2-amine]: the figures for the IC50 (on ALK enzyme; on cMet enzyme; in test [2]) were 71.1 nM, over 17800 nM and 302 nM, respectively. The inhibition constant (Ki) in test [1] came out at 3.8 nM.
The like results for `CC(Oc1cc(-c2ccnn2C)cnc1N)c1cc(F)ccc1C#N` (stereo not shown) [Example 36, 2-(1-{[2-amino-5-(1-methyl-1H-pyrazol-5-yl)pyridin-3-yl]oxy}ethyl)-4-fluorobenzonitrile monohydrochloride] were, in that order, 120 nM, over 15800 nM, 862 nM and 22 nM.
With `CC(Oc1cc(-c2ccnn2C)cnc1N)c1cc(F)ccc1-n1cccn1` (stereo not shown) [Example 37, 3-{1-[5-fluoro-2-(1H-pyrazol-1-yl)phenyl]-ethoxy}-5-(1-methyl-1H-pyrazol-5-yl)pyridin-2-amine], the IC50 against ALK enzyme is 70.3 nM; against cMet enzyme, 8090 nM; in test [2] it was 147 nM. Also, the inhibition constant Ki in test [1] turned out to be 1.55 nM.
The like results for `COc1ncc(F)cc1C(C)Oc1cc(-c2c[nH]nc2C)cnc1N` (stereo not shown) [Example 41, 3-[1-(5-fluoro-2-methoxypyridin-3-yl)ethoxy]-5-(3-methyl-1H-pyrazol-4-yl)pyridin-2-amine] were, in that order, 15.7 nM, 5590 nM, 58.6 nM and 0.922 nM.
The like results for `CC(Oc1cc(-c2ccnn2C)cnc1N)c1cc(F)cc2scnc12` (stereo not shown) [Example 42, 3-[1-(6-fluoro-1,3-benzothiazol-4-yl)ethoxy]-5-(1-methyl-1H-pyrazol-5-yl)pyridin-2-amine] were, in that order, 58.1 nM, over 15900 nM, 263 nM and 2.05 nM.
The corresponding values for `Cc1n[nH]cc1-c1cnc(N)c(OC(C)c2cc(F)ccc2Cl)c1` (stereo not shown) [Example 45, 3-[1-(2-chloro-5-fluorophenyl)ethoxy]-5-(3-methyl-1H-pyrazol-4-yl)pyridin-2-amine] are 75.6 nM, 4160 nM, 106 nM and 1.57 nM.
In the case of `Cc1n[nH]cc1-c1cnc(N)c(OC(C)c2cc(F)ccc2-n2cccn2)c1` (stereo not shown) [Example 47, 3-{1-[5-fluoro-2-(1H-pyrazol-1-yl)phenyl]-ethoxy}-5-(3-methyl-1H-pyrazol-4-yl)pyridin-2-amine], the IC50 against ALK enzyme amounted to 70.5 nM; at cMet enzyme it was 2850 nM; in test [2], 45.7 nM. Also, the inhibition constant Ki in test [1] is under 0.2 nM.
The corresponding values for `COc1ccncc1-c1cnc(N)c(OC(C)c2cc(F)ccc2OC)c1` (stereo not shown) [Example 50, 5-[1-(5-fluoro-2-methoxyphenyl)-ethoxy]-4′-methoxy-3,3′-bipyridin-6-amine] are 50.2 nM, 5070 nM, 58.4 nM and 0.739 nM.
The corresponding values for `CC(Oc1cc(-c2ccnn2C)cnc1N)c1cc(F)cc2cccnc12` (stereo not shown) [Example 51, 3-[1-(6-fluoroquinolin-8-yl)ethoxy]-5-(1-methyl-1H-pyrazol-5-yl)pyridin-2-amine] are 45.2 nM, 7870 nM, 1450 nM and 61 nM.
`Cc1n[nH]c(C)c1-c1cnc(N)c(OC(C)c2cc(F)ccc2-n2cccn2)c1` (stereo not shown) [Example 52, 5-(3,5-dimethyl-1H-pyrazol-4-yl)-3-{1-[5-fluoro-2-(1H-pyrazol-1-yl)phenyl]-ethoxy}pyridin-2-amine]: the values for the IC50 (at ALK enzyme; against cMet enzyme; in test [2]) were 73.3 nM, 10400 nM and 14.5 nM, respectively. Further, the Ki in test [1] was determined as 1.1 nM.
